Legend:
[1] = test system: infected PBMCs (VSV-G pseudotyped HIV virus); test: cells; type: cell-based, human; details: Homo sapiens, PBMC, read-out: SMACK EC50_50% NHS
[2] = Viking EC50, 50% NHS; type: cell-based; details: method not described, read-out: Viking EC50_50% NHS

For Cc1c(C#N)cc(C(F)F)cc1Oc1c(C(F)(F)C(F)F)ncn(Cc2ccc(CO)[nH]c2=O)c1=O [Example 25, 5-(Difluoromethyl)-3-((1-((6-(Hydroxymethyl)-2-Oxo-1,2-Dihydropyridin-3-Yl)Methyl)-6-Oxo-4-(1,1,2,2-Tetrafluoroethyl)-1,6-Dihydropyrimidin-5-Yl)Oxy)-2-Methylbenzonitrile], which EC50 [1] is on record?
The EC50 was 72.7 nM.

What about the EC50 [2] of the same compound?
The EC50 was 19.6 nM.

What does the source list for COCc1ccc(Cn2cnc(C(F)(F)C(F)F)c(Oc3cc(Cl)cc(C#N)c3F)c2=O)c(=O)[nH]1 [Example 1, 5-Chloro-2-Fluoro-3-((1-((6-(Methoxymethyl)-2-Oxo-1,2-Dihydropyridin-3-Yl)Methyl)-6-Oxo-4-(1,1,2,2-Tetrafluoroethyl)-1,6-Dihydropyrimidin-5-Yl)Oxy)Benzonitrile]?
EC50 [1]: 258 nM; EC50 [2]: 29.6 nM

With Cc1c(C#N)cc(C(F)F)cc1Oc1c(C(F)(F)C(F)F)ncn(Cc2ccc(-c3cn[nH]c3)[nH]c2=O)c1=O [Example 27, 5-(difluoromethyl)-3-((1-((2-hydroxy-6-(1H-pyrazol-4-yl)pyridin-3-yl)methyl)-6-oxo-4-(1,1,2,2-tetrafluoroethyl)-1,6-dihydropyrimidin-5-yl)oxy)-2-methylbenzonitrile] as the compound, how does the EC50 [1] read?
The EC50 was 292 nM.

What about the EC50 [2] of the same compound?
Its EC50 is 77.2 nM.

For Cc1cc(C#N)c(C)c(Oc2c(C(F)(F)C(F)F)ncn(Cc3c(C)cc(C)[nH]c3=O)c2=O)c1 [Example 24, 3-((1-((4,6-Dimethyl-2-Oxo-1,2-Dihydropyridin-3-Yl)Methyl)-6-Oxo-4-(1,1,2,2-Tetrafluoroethyl)-1,6-Dihydropyrimidin-5-Yl)Oxy)-2,5-Dimethylbenzonitrile], which EC50 [1] is on record?
The EC50 was 346 nM.

What about the EC50 [2] of the same compound?
The EC50 was 168 nM.

Which EC50 [1] does the source give for Cc1c(C#N)cc(C(F)F)cc1Oc1c(C(F)(F)F)ncn(Cc2ccc[nH]c2=O)c1=O [Example 16, 5-(difluoromethyl)-2-methyl-3-((6-oxo-1-((2-oxo-1,2-dihydropyridin-3-yl)methyl)-4-(trifluoromethyl)-1,6-dihydropyrimidin-5-yl)oxy)benzonitrile] here?
Its EC50 is 268 nM.

And the EC50 [2]?
Its EC50 is 7.08 nM.

Which results are given for Cc1c(C#N)cc(Cl)cc1Oc1c(C(F)(F)F)ncn(Cc2ccc(-c3cc[nH]n3)[nH]c2=O)c1=O [Example 13, 5-chloro-2-methyl-3-((6-oxo-1-((2-oxo-6-(1H-pyrazol-3-yl)-1,2-dihydropyridin-3-yl)methyl)-4-(trifluoromethyl)-1,6-dihydropyrimidin-5-yl)oxy)benzonitrile]?
EC50 [1]: 296 nM; EC50 [2]: 343 nM

What does the source list for Cc1cc(C)c(Cn2cnc(C(F)(F)C(F)F)c(Oc3cc(Cl)cc(C#N)c3)c2=O)c(=O)[nH]1 [Example 6, 3-chloro-5-((1-((4,6-dimethyl-2-oxo-1,2-dihydropyridin-3-yl)methyl)-6-oxo-4-(1,1,2,2-tetrafluoroethyl)-1,6-dihydropyrimidin-5-yl)oxy)benzonitrile]?
EC50 [1]: 263 nM; EC50 [2]: 37.5 nM

With Cc1cc(C)c(Cn2cnc(C(F)(F)C(F)F)c(Oc3cc(C#N)cc(C(F)F)c3)c2=O)c(=O)[nH]1 [Example 40, 3-(difluoromethyl)-5-((1-((4,6-dimethyl-2-oxo-1,2-dihydropyridin-3-yl)methyl)-6-oxo-4-(1,1,2,2-tetrafluoroethyl)-1,6-dihydropyrimidin-5-yl)oxy)benzonitrile] as the compound, how does the EC50 [1] read?
Its EC50 is 283 nM.

And the EC50 [2]?
The EC50 was 39.2 nM.

For Cc1c(C#N)cc(Cl)cc1Oc1c(C(F)(F)F)ncn(Cc2cc(F)c[nH]c2=O)c1=O [Example 19, 5-chloro-3-((1-((5-fluoro-2-oxo-1,2-dihydropyridin-3-yl)methyl)-6-oxo-4-(trifluoromethyl)-1,6-dihydropyrimidin-5-yl)oxy)-2-methylbenzonitrile], which EC50 [1] is on record?
Its EC50 is 376 nM.

What about the EC50 [2] of the same compound?
Its EC50 is 30.7 nM.

For Cc1c(C#N)cc(Cl)cc1Oc1c(C(C)F)ncn(Cc2ccc(-c3cc[nH]n3)[nH]c2=O)c1=O (stereo not drawn) [Example 12, 5-chloro-3-((4-(1-fluoroethyl)-6-oxo-1-((2-oxo-6-(1H-pyrazol-3-yl)-1,2-dihydropyridin-3-yl)methyl)-1,6-dihydropyrimidin-5-yl)oxy)-2-methylbenzonitrile], which EC50 [1] is on record?
Its EC50 is 374 nM.

What about the EC50 [2] of the same compound?
The EC50 was 127 nM.

With Cc1c(C#N)cc(C(F)F)cc1Oc1c(C(F)(F)C(F)(F)F)ncn(Cc2ccc[nH]c2=O)c1=O [Example 23, 5-(Difluoromethyl)-2-Methyl-3-((6-Oxo-1-((2-Oxo-1,2-Dihydropyridin-3-Yl)Methyl)-4-(Perfluoroethyl)-1,6-Dihydropyrimidin-5-Yl)Oxy)Benzonitrile] as the compound, how does the EC50 [1] read?
Its EC50 is 234 nM.

What about the EC50 [2] of the same compound?
Its EC50 is 53 nM.

For Cc1c(C#N)cc(C(F)F)cc1Oc1c(C(F)(F)C(F)F)ncn(Cc2ccc[nH]c2=O)c1=O [Example 17, 5-(difluoromethyl)-2-methyl-3-((6-oxo-1-((2-oxo-1,2-dihydropyridin-3-yl)methyl)-4-(1,1,2,2-tetrafluoroethyl)-1,6-dihydropyrimidin-5-yl)oxy)benzonitrile], which EC50 [1] is on record?
Its EC50 is 218 nM.

And the EC50 [2]?
The EC50 was 17.1 nM.

With Cc1ccc(Cn2cnc(C(F)(F)C(F)(F)F)c(Oc3cc(Cl)cc(C#N)c3F)c2=O)c(=O)[nH]1 [Example 21, 5-Chloro-2-Fluoro-3-((1-((6-Methyl-2-Oxo-1,2-Dihydropyridin-3-Yl)Methyl)-6-Oxo-4-(Perfluoroethyl)-1,6-Dihydropyrimidin-5-Yl)Oxy)Benzonitrile] as the compound, how does the EC50 [1] read?
Its EC50 is 152 nM.

What about the EC50 [2] of the same compound?
The EC50 was 76.8 nM.

Which EC50 [1] does the source give for Cc1ccc(Cn2cnc(C(C)(F)F)c(Oc3cc(Cl)cc(C#N)c3F)c2=O)c(=O)[nH]1 [Example 3, 5-chloro-3-((4-(1,1-difluoroethyl)-1-((6-methyl-2-oxo-1,2-dihydropyridin-3-yl)methyl)-6-oxo-1,6-dihydropyrimidin-5-yl)oxy)-2-fluorobenzonitrile] here?
Its EC50 is 87.6 nM.

And the EC50 [2]?
The EC50 was 14.1 nM.

For N#Cc1cc(Oc2c(C(F)(F)F)ncn(Cc3cc(F)c[nH]c3=O)c2=O)cc(C(F)F)c1 [Example 35], which EC50 [1] is on record?
Its EC50 is 314 nM.

And the EC50 [2]?
Its EC50 is 15.6 nM.

Source: patent publication US20250214962A1, “PYRIDINONE DERIVATIVES AS SELECTIVE CYTOTOXIC AGENTS AGAINST HIV INFECTED CELLS” (Merck Sharp & Dohme LLC, priority 2019, published 2025)
